13 molecules from patent US8822449B2, “Substituted aminoindanes and analogs thereof, and the pharmaceutical use thereof” (Sanofi, priority 2008, dated 2014) can be followed below.

In this assay the target is T1, sodium-proton exchanger of subtype 3 (NHE3) (Homo sapiens, UniProt P48764).
T1 construct: expressed in transfected cells
T1 sequence (P48764 26-834): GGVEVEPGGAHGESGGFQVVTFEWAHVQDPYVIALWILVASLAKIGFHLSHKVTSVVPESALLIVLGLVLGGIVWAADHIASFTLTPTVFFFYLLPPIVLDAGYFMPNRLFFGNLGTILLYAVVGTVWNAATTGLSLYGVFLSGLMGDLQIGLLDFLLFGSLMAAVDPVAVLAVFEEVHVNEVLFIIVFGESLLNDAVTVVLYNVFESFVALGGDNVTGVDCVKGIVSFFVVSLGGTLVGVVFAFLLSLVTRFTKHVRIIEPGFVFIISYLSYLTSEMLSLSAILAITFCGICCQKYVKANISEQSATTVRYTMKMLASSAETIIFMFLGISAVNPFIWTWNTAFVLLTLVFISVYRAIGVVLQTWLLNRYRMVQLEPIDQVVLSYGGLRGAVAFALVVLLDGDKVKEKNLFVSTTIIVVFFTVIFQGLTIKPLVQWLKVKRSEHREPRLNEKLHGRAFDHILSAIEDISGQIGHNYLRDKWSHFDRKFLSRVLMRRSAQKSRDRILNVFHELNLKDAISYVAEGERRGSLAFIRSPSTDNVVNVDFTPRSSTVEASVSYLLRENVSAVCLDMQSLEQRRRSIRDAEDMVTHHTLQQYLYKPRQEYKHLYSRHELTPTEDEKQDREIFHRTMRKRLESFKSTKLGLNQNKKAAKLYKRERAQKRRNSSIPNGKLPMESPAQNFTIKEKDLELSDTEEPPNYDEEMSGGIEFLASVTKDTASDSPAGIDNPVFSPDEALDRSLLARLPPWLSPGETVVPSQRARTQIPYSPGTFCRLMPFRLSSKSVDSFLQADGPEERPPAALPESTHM
As to the kind of experiment: Recovery of intracellular pH (pHi) after acidification in LAP1 cells stably expressing NHE3 (BCECF fluorescence, FLIPR). It counts as cell-based. The following applies: LAP1 cells stably expressing NHE3; pH recovery after acidification; range 1 is % inhibition at 10 μM; read-out: Activity range (inhibitory effect on NHE3).

`Clc1cnccc1O[C@H]1c2ccccc2C[C@@H]1CN1CCCC1` (racemic) [Example 443, 3-chloro-4-(2-pyrrolidin-1-ylmethylindan-1-yloxy)pyridine]: the inhibition at 10 µM fell in the range of 20 to 50%.
For the molecule `Cc1cn(-c2ccc(O[C@H]3c4cc(Cl)cc(F)c4C[C@@H]3N3CC[C@@H](O)C3)c(F)c2)c(C)n1` [Example 738, (R)-1-{trans-(1S,2S)-6-Chloro-1-[4-(2,4-dimethyl-imidazol-1-yl)-2-fluoro-phenoxy]-4-fluoro-indan-2-yl}-pyrrolidin-3-ol], the IC50 was less than 1000 nM.
Still for that read-out and setting: the figure for `Cc1nnc(C)n1-c1ccc(O[C@H]2c3cc(Cl)cc(Cl)c3C[C@@H]2N2CC[C@@H](O)C2)c(F)c1F` [Example 126, (R)-1-{trans-(1S,2S)-4,6-dichloro-1-[4-(3,5-dimethyl-[1,2,4]triazol-4-yl)-2,3-difluorophenoxy]indan-2-yl}pyrrolidin-3-ol] is less than 1000 nM; for `CS(=O)(=O)c1ccc(O[C@H]2c3cc(Cl)cc(Cl)c3C[C@@H]2CN2CCCC2)cc1` (racemic) [Example 280, trans-4,6-dichloro-1-(4-methylsulfonyl-phenyloxy)-2-pyrrolidinylmethylindane] it is 1000 to 10000 nM.
Regarding `CN1CCN([C@H]2Cc3c(Cl)cc(Cl)cc3[C@@H]2Oc2ccc(-n3ccnc3)cc2)CC1` [Example 297, 1-[trans-(1S,2S)-4,6-dichloro-1-(4-imidazol-1-ylphenoxy)indan-2-yl]-4-methylpiperazine], the inhibition at 10 µM lay in the range of 20 to 50%.
On to `Cc1c(Cl)cccc1O[C@@H]1c2ccccc2C[C@H]1N1CCC(CN)C1` (mixture of isomers) [Example 611, C-{1-[rac-trans-(1,2)-1-(3-chloro-2-methylphenoxy)indan-2-yl]pyrrolidin-3-yl}methylamine], for which the IC50 fell in the range of 1000 to 10000 nM.
For `CN1CC(=O)N(c2ccc(Cl)c(O[C@H]3c4cc(Cl)cc(F)c4C[C@@H]3N3CC[C@@H](O)C3)c2)C1=O` [Example 435, 3-{4-chloro-3-[(1S,2S)-6-chloro-4-fluoro-2-((R)-3-hydroxypyrrolidin-1-yl)indan-1-yloxy]phenyl}-1-methylimidazolidine-2,4-dione], the IC50 was 1000 to 10000 nM.
Turning to `NC(=O)c1cccc(O[C@@H]2c3ccccc3C[C@H]2N2CCC[C@@H](N)C2)c1` (racemic) [Example 411, 3-[rac-trans-(1,2)-2-((R)-3-aminopiperidin-1-yl)indan-1-yloxy]benzamide], the IC50 was less than 1000 nM.
With `CC(=O)Nc1cccc(O[C@@H]2c3ccccc3C[C@H]2N2CCSCC2)c1` (racemic) [Example 642, N-[3-(rac-trans-(1,2)-2-thiomorpholin-4-ylindan-1-yloxy)phenyl]acetamide], the IC50 fell in the range of 1000 to 10000 nM.
Regarding `N#Cc1c(F)cccc1O[C@@H]1c2ccccc2C[C@H]1N1C[C@H]2CNC[C@H]2C1` (racemic) [Example 398, 2-fluoro-6-[rac-trans-(1,2)-2-(hexahydropyrrolo[3,4-c]pyrrol-2-yl)indan-1-yloxy]benzonitrile], the IC50 was 1000 to 10000 nM.
In the case of `Cc1ccc(O[C@H]2c3ccccc3CC[C@@H]2N2CCC[C@H](N)C2)c(Br)c1` (racemic) [Example 150, (S)-1-[rac-trans-(1,2)-1-(2-bromo-4-methylphenoxy)-1,2,3,4-tetrahydronaphthalen-2-yl]piperidin-3-ylamine], the inhibition at 10 µM fell in the range of 20 to 50%.
For `NCC1CCN([C@@H]2Cc3ccccc3[C@H]2Oc2cccc(N3CCNCC3)c2)CC1` (racemic) [Example 616, C-{1-[rac-trans-(1,2)-1-(3-piperazin-1-ylphenoxy)indan-2-yl]piperidin-4-yl}methylamine], the IC50 lay within 1000 to 10000 nM.
Consider `CS(=O)(=O)c1ccc(O[C@H]2c3cc(Cl)cc(Cl)c3C[C@@H]2N2CCCC(NCCO)C2)cc1` (stereo partly drawn) [Example 379, 2-{(R)-1-[trans-(1S,2S)-4,6-dichloro-1-(4-methanesulfonylphenoxy)indan-2-yl]piperidin-3-ylamino}-ethanol], for which the IC50 was less than 1000 nM.
